Test results published in patent US20260167623A1 (NIKANG THERAPEUTICS, INC., priority 2022, published 2026).
pIC50: −log10 of the molar value.

What follows are compounds tested against T1, CDK2 (Homo sapiens, UniProt P24941) (assay: Inhibition of CDK2: phospho-Rb (S807/811) HTRF measurement in OVCAR3 cells, 24 h). Conditions: 24 h compound treatment, read-out: pRB_OVCAR3_24h.
T1 construct: High-Throughput Measurement of Cellular Endogenous CDK2; endogenous in cells; host or cells: OVCAR3
Type: cell-based
Summary of the method: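 IC50 came from a four-parameter fit of DMSO-normalized TR-FRET ratios (665/620 nm) reporting phospho-Rb S807/811. Lysates were taken from OVCAR3 cultures treated 24 h with compound (0.3 to 10,000 nM) and incubated 4 h at room temperature with the antibody pair.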
`O=C1CCN(c2ccc(N3CCN(CC4CCN(c5cccc(S(=O)(=O)N6CCC(Nc7ncc(C(F)(F)F)cn7)CC6)c5)CC4)CC3)cc2)C(=O)N1` [Example 113, 1-(4-(4-((1-(3-((4-((5-(trifluoromethyl)-pyrimidin-2-yl)amino)piperidin-1-yl)sulfonyl)phenyl)piperidin-4-yl)methyl)piperazin-1-yl)phenyl)-dihydropyrimidine-2,4(1H,3H)-dione] showed a pIC50 of 6.30 to 7.00. Compound `CC(Cc1cccc(S(=O)(=O)N2CCC(Nc3ncc(OC(F)F)cn3)CC2)c1)CN1CCN(c2cc3c(cc2F)C(=O)N(C2CCC(=O)NC2=O)C3)CC1` (centres unmarked) [Example 102, 3-(5-(4-(3-(3-((4-((5-(difluoromethoxy)-pyrimidin-2-yl)amino)piperidin-1-yl)sulfonyl)phenyl)-2-methylpropyl)-piperazin-1-yl)-6-fluoro-1-oxoisoindolin-2-yl)piperidine-2,6-dione] has a pIC50 of 5.60 to 6.30. Compound `Cn1nc(N2CCC(=O)NC2=O)c2ccc(C3CCN(CC4CCN(c5cccc(S(=O)(=O)N6CCC(Nc7ncc(C(F)(F)F)cn7)CC6)c5)CC4)CC3(F)F)cc21` (centres unmarked) [Example 90, 1-(6-(3,3-difluoro-1-((1-(3-((4-((5-(trifluoromethyl)pyrimidin-2-yl)amino)-piperidin-1-yl)sulfonyl)phenyl)piperidin-4-yl)methyl)piperidin-4-yl)-1-methyl-1H-indazol-3-yl)dihydropyrimidine-2,4(1H,3H)-dione] has a pIC50 of 6.30 to 7.00. For `Cn1nc(N2CCC(=O)NC2=O)c2ccc(C3CCN(CCCC4CCN(S(=O)(=O)N5CCC(Nc6ncc(C(F)(F)F)cn6)CC5)CC4)CC3)cc21` [Example 36], the pIC50 was 5.60 to 6.30. `Cn1nc(N2CCC(=O)NC2=O)c2ccc(C3CCN(CC4CCN(c5cc(C#N)cc(S(=O)(=O)N6CCC(Nc7ncc(Cl)cn7)CC6)c5)CC4)CC3)cc21` [Example 160, 3-((4-((5-chloropyrimidin-2-yl)amino)piperidin-1-yl)sulfonyl)-5-(4-((4-(3-(2,4-dioxotetrahydropyrimidin-1(2H)-yl)-1-methyl-1H-indazol-6-yl)piperidin-1-yl)methyl)piperidin-1-yl)benzonitrile 2,2,2-trifluoroacetate] was tested, and the pIC50 was 6.30 to 7.00. `Cn1nc(N2CCC(=O)NC2=O)c2ccc(C3CCN(CCC4CCCN(S(=O)(=O)N5CCC(Nc6ncc(C(F)(F)F)cn6)CC5)C4)CC3)cc21` (centres unmarked) [Example 32, 1-(1-methyl-6-(1-(2-(1-((4-((5-(trifluoromethyl)pyrimidin-2-yl)amino)-piperidin-1-yl)sulfonyl)piperidin-3-yl)ethyl)piperidin-4-yl)-1H-indazol-3-yl)dihydropyrimidine-2,4(1H,3H)-dione] gave a pIC50 of 5.60 to 6.30. In the case of `O=C1CCC(N2C(=O)c3cc(F)c(N4CCN(Cc5cccc(S(=O)(=O)N6CCC(Nc7ncc(Cl)cn7)CC6)c5)CC4)cc3C2=O)C(=O)N1` (centres unmarked) [Example 22, 5-(4-(3-((4-((5-chloropyrimidin-2-yl)amino)piperidin-1-yl)sulfonyl)benzyl)-piperazin-1-yl)-2-(2,6-dioxopiperidin-3-yl)-6-fluoroisoindoline-1,3-dione], the pIC50 was 5.60 to 6.30. `CO[C@@H]1CN(S(=O)(=O)c2cccc(N3CCC(CN4CCC(c5ccc6c(N7CCC(=O)NC7=O)nn(C)c6c5)CC4)CC3)c2)CC[C@H]1Nc1ncc(Cl)cn1` (racemic) [Example 219, Rac-1-(6-(1-((1-(3-(((3R,4R)-4-((5-chloropyrimidin-2-yl)amino)-3-methoxypiperidin-1-yl)sulfonyl)phenyl)piperidin-4-yl)methyl)piperidin-4-yl)-1-methyl-1H-indazol-3-yl)dihydropyrimidine-2,4(1H,3H)-dione] was tested, and the pIC50 was < 5.60. In the case of `O=C1CCN(c2nn(CC(F)(F)F)c3cc(N4CCN(Cc5cccc(S(=O)(=O)N6CCC(Nc7ncc(Cl)cn7)CC6)c5)CC4)ccc23)C(=O)N1` [Example 62, 1-(6-(4-(3-((4-((5-chloropyrimidin-2-yl)amino)piperidin-1-yl)sulfonyl)benzyl)-piperazin-1-yl)-1-(2,2,2-trifluoroethyl)-1H-indazol-3-yl)dihydropyrimidine-2,4(1H,3H)-dione], the pIC50 was 6.30 to 7.00. For `Cn1nc(N2CCC(=O)NC2=O)c2ccc(CN3CCN(c4cccc(S(=O)(=O)N5CCC(Nc6ncc(C(F)(F)F)cn6)CC5)c4)CC3)cc21` [Example 179, 1-(1-methyl-6-((4-(3-((4-((5-(trifluoromethyl)pyrimidin-2-yl)amino)piperidin-1-yl)sulfonyl)phenyl)piperazin-1-yl)methyl)-1H-indazol-3-yl)dihydropyrimidine-2,4(1H,3H)-dione], the pIC50 was 5.60 to 6.30. With `Cn1nc(N2CCC(=O)NC2=O)c2ccc(C3CCN(Cc4cccc(S(=O)(=O)N5CC6(CC(Nc7ncc(C(F)(F)F)cn7)C6)C5)c4)CC3)cc21` [Example 146, 1-(1-methyl-6-(1-(3-((6-((5-(trifluoro-methyl)pyrimidin-2-yl)amino)-2-azaspiro[3.3]heptan-2-yl)sulfonyl)benzyl)-piperidin-4-yl)-1H-indazol-3-yl)dihydropyrimidine-2,4(1H,3H)-dione] the pIC50 was < 5.60. With `Cn1nc(N2CCC(=O)NC2=O)c2ccc(C3CCN(C[C@@H]4CCCN4c4cccc(S(=O)(=O)N5CCC(Nc6ncc(OC(F)F)cn6)CC5)c4)CC3)cc21` [Example 259, (S)-1-(6-(1-((1-(3-((4-((5-(difluoromethoxy)pyrimidin-2-yl)amino)piperidin-1-yl)sulfonyl)phenyl)pyrrolidin-2-yl)methyl)piperidin-4-yl)-1-methyl-1H-indazol-3-yl)dihydropyrimidine-2,4(1H,3H)-dione] the pIC50 was 5.60 to 6.30. In the case of `Cn1nc(N2CCC(=O)NC2=O)c2ccc(C3CCN(Cc4cncc(S(=O)(=O)N5CCC(Nc6ncc(C(F)(F)F)cn6)CC5)c4)CC3)cc21` [Example 130, 1-(1-methyl-6-(1-((5-((4-((5-(trifluoro-methyl)pyrimidin-2-yl)amino)piperidin-1-yl)sulfonyl)pyridin-3-yl)methyl)piperidin-4-yl)-1H-indazol-3-yl)dihydropyrimidine-2,4(1H,3H)-dione], the pIC50 was 7.00 to 9.00. For `O=C1CCC(N2C(=O)c3cc(F)c(N4CCN(Cc5cccc(S(=O)(=O)N6CCC(Nc7ncc(C(F)(F)F)cn7)CC6)c5)CC4)cc3C2=O)C(=O)N1` (centres unmarked) [Example 72, 2-(2,6-dioxopiperidin-3-yl)-5-fluoro-6-(4-(3-((4-((5-(trifluoromethyl)pyrimidin-2-yl)amino)piperidin-1-yl)sulfonyl)benzyl)-piperazin-1-yl)isoindoline-1,3-dione], the pIC50 was 5.60 to 6.30. `Cn1nc(N2CCC(=O)NC2=O)c2ccc(C3=CCN(CC4CCN(c5cccc(S(=O)(=O)N6CCC(Nc7ncc(Cl)cn7)CC6)c5)CC4)CC3)cc21` [Example 134, 1-(6-(1-((1-(3-((4-((5-chloropyrimidin-2-yl)amino)piperidin-1-yl)sulfonyl)phenyl)-piperidin-4-yl)methyl)-1,2,3,6-tetrahydropyridin-4-yl)-1-methyl-1H-indazol-3-yl)dihydropyrimidine-2,4(1H,3H)-dione] showed a pIC50 of 6.30 to 7.00. For `Cn1nc(N2CCC(=O)NC2=O)c2ccc(N3CC4(CN(Cc5cccc(S(=O)(=O)N6CCC(Nc7ncc(Cl)cn7)CC6)c5)C4)C3)cc21` [Example 46], the pIC50 was 5.60 to 6.30. `Cn1nc(N2CCC(=O)NC2=O)c2ccc(C3CCN(CC4CCN(c5cc(S(=O)(=O)N6CCC(Nc7ncc(Cl)cn7)CC6)ccc5F)CC4)CC3)cc21` [Example 140, 1-(6-(1-((1-(5-((4-((5-chloropyrimidin-2-yl)amino)piperidin-1-yl)sulfonyl)-2-fluorophenyl)piperidin-4-yl)methyl)-piperidin-4-yl)-1-methyl-1H-indazol-3-yl)dihydropyrimidine-2,4(1H,3H)-dione] gave a pIC50 of 7.00 to 9.00.
